# Measured values from patent publication US20240090547A1, “SWEETENER COMPOSITIONS COMPRISING MOGROSIDES AND USES THEREOF” (Firmenich Incorporated, priority 2021, published 2024).
# Legend:
# Type in all cases: in vivo, human
# panel of flavorists [1] = experiment: Additional sensory testing for vanilla milk, flavorist panel; settings: 400 ppm mogrosides, 0 to 10 scale, letter in parentheses = Duncan's test group; for Sweet Linger: aftertaste, after expectoration; for Bitterness / Mouthfeel/Thickness / Peak Sweetness / Upfront Sweetness: in-mouth
# Protocol: (§1) A panel of flavorists at three locations evaluated vanilla milk containing various mogrosides at a concentration of 400 ppm mogrosides for in-mouth attributes (peak sweetness, upfront sweetness, bitterness, and mouthfeel/thickness) and aftertaste attributes (sweet taste linger), on a 0 to 10 scale. The in-mouth attributes were evaluated while holding the sample in the mouth, while the aftertaste attributes were evaluated after expectoration. The data was analyzed using Duncan's new multiple range test and the scores are provided in the data below in parentheses.
# panel of flavorists [2] = experiment: Additional sensory testing for lemon-flavored (lemon-lime) beverage, flavorist panel; settings: 600 ppm mogrosides, 0 to 10 scale, letter in parentheses = Duncan's test group; for Sweet Linger: aftertaste, after expectoration; for Bitterness / Mouthfeel/Thickness / Peak Sweetness / Upfront Sweetness: in-mouth
# Protocol: as §1, with “lemon-lime beverage” for “vanilla milk containing”, “600” for “400”, “expectoration.” for “expectoration. The data was analyzed using Duncan's new multiple range test and the scores are provided in the data below in parentheses.”
# expert panelists = experiment: Expert panelists' comparison of mogrosides with stevia; settings: 'Examples 4 and 5', in words
# panel of volunteers [3] = experiment: Sensory testing for sparkling orange beverage; settings: sparkling orange beverage, 250 ppm (mogroside V 250 mg [sic]), average normalized score, 10-point scale; for Licorice Aftertaste / Lingering Sweetness / Mouth Coating / Overall Off-Taste: aftertaste; for Delayed Sweetness / Sweetness: in-mouth
# Protocol: (§2) A panel of volunteers evaluated siamenoside I for in-mouth attributes (sweetness, delayed sweetness, sourness, bitterness, global flavor intensity, thickness/body, and astringence) and aftertaste (AT) attribtues (lingering sweetness, overall off-taste intensity, licorice off-tast, bitterness off-taste, and mouth coating) on a 10-point scale. Two replicate sessions were conducted, with a 20 minute break between sessions. There was a 90 second delay between samples within a session. Panelists evaluated all samples in a first session and evaluated the samples again a second time in a second session. Control samples of Rebaudioside M (Reb M) were evaluated during all sessions as a control. Mogroside V was also evaluated and sensory data for mogroside V is provided.
# (§3) Data analysis was performed using 2-way analysis of variance (ANOVA) with interaction using Tukey's HSD test. The data was normalized for each attribute according to average scores for Reb M.
# A panel of volunteers evaluated a sparkling orange beverage containing siamenodie I for in-mouth attributes and aftertaste attributes according to the methods described in Example 1 above.
# The average normalized in-mouth attributes for a sample of sparkling orange beverage containing siamenoside I was evaluated and the results are provided below.
# The average normalized aftertaste attributes for a sample of sparkling orange beverage containing siamenoside I was evaluated and the results are provided below.
# panel of volunteers [4] = experiment: Sensory testing for apple drink (panel, in-mouth and aftertaste attributes); parameters: key to Sweetness / Delayed Sweetness / Bitterness / Lingering Sweetness / Overall Off-Taste / Licorice Aftertaste / Bitterness Aftertaste / Mouth Coating: 10-point scale; normalized per attribute to average Reb M scores; settings: 10-point scale; for Bitterness Aftertaste / Licorice Aftertaste / Lingering Sweetness / Overall Off-Taste / Mouth Coating: aftertaste; for Bitterness / Delayed Sweetness / Global Flavor Intensity / Sweetness / Thickness/Body: in-mouth, average normalized score
# Protocol: as §2, §3
# The average normalized in-mouth attributes for each sample of apple drink containing siamenoside I was evaluated below.
# The average sweetness for each sample of apple drink containing siamenoside I was evaluated below.
# panel of volunteers [5] = experiment: Sensory testing for vanilla milk; settings: average normalized score, 10-point scale; for Licorice Aftertaste / Lingering Sweetness / Mouth Coating / Overall Off-Taste: aftertaste; for Astringence / Delayed Sweetness / Fattiness / Sourness / Sweetness / Bitterness / Global Flavor Intensity: in-mouth
# Protocol: as §2, §3
# A panel of volunteers evaluated vanilla milk for in-mouth attributes and aftertaste attributes according to the methods described in Example 1 above.
# The average normalized in-mouth attributes for each sample of vanilla milk was evaluated and the results are provided below.
# The average normalized aftertaste attributes for each sample of vanilla milk containing siamenoside I was evaluated and the results are provided below.
# panel of volunteers [6] = experiment: Sensory testing for lemon-lime carbonated soft drink; parameters: key to Sweetness / Delayed Sweetness / Bitterness / Lingering Sweetness / Overall Off-Taste / Licorice Aftertaste / Bitterness Aftertaste: 10-point scale; scores normalized to average Reb M scores; settings: 600 ppm (mogroside V 600 mg [sic]), average normalized score, 10-point scale; for Bitterness Aftertaste / Licorice Aftertaste / Lingering Sweetness / Overall Off-Taste: aftertaste; for Bitterness / Delayed Sweetness / Global Flavor Intensity / Sweetness: in-mouth
# Protocol: as §2, §3
# A panel of volunteers evaluated the siamenoside I-containing lemon-lime carbonated soft drink for in-mouth attributes and aftertaste attributes according to the methods described in Example 1 above.
# The average normalized in-mouth attributes for a sample of lemon-lime carbonated soft drink having […] was evaluated below.
# The average normalized aftertaste attributes for a sample of lemon-lime carbonated soft drink having siamenoside I was evaluated below.
# [7] = 250 ppm (mogroside V 250 mg [sic])
# [8] = 500 ppm (mogroside V 500 mg [sic])
# [9] = 200 ppm (mogroside V 200 mg [sic])
# [10] = 400 ppm (mogroside V 400 mg [sic])
compound,measurement,setting,value
Isomogroside IVE,Sweet Linger,panel of flavorists [1],4.563 (b)
same,Bitterness,panel of flavorists [1],1.313 (ab)
same,Mouthfeel/Thickness,panel of flavorists [1],4.125 (b)
same,Peak Sweetness,panel of flavorists [1],5.938 (c)
same,Upfront Sweetness,panel of flavorists [1],5.125 (b)
same,Sweet Linger,panel of flavorists [2],3.429 (c)
same,Bitterness,panel of flavorists [2],1.857 (a)
same,Mouthfeel/Thickness,panel of flavorists [2],2.714 (b)
same,Peak Sweetness,panel of flavorists [2],4.857 (c)
same,Upfront Sweetness,panel of flavorists [2],3.571 (b)
same,bitter aftertaste compared with stevia,expert panelists,lower bitter aftertaste
same,licorice aftertaste compared with stevia,expert panelists,lower licorice aftertaste
same,mouthfeel compared with stevia,expert panelists,better mouthfeel
C[C@H](CC[C@@H](O[C@@H]1O[C@H](CO[C@@H]2O[C@H](CO)[C@@H](O)[C@H](O)[C@H]2O)[C@@H](O)[C@H](O)[C@H]1O[C@@H]1O[C@H](CO)[C@@H](O)[C@H](O)[C@H]1O)C(C)(C)O)[C@H]1CC[C@@]2(C)[C@@H]3CC=C4[C@@H](CC[C@H](O[C@@H]5O[C@H](CO[C@@H]6O[C@H](CO)[C@@H](O)[C@H](O)[C@H]6O)[C@@H](O)[C@H](O)[C@H]5O)C4(C)C)[C@]3(C)[C@H](O)C[C@]12C [mogroside V],Licorice Aftertaste,panel of volunteers [3],2.2
same,Lingering Sweetness,panel of volunteers [3],3.6
same,Mouth Coating,panel of volunteers [3],2.8
same,Overall Off-Taste,panel of volunteers [3],2.9
same,Delayed Sweetness,panel of volunteers [3],4.2
same,Sweetness,panel of volunteers [3],5.1
same,Bitterness Aftertaste,panel of volunteers [4]; [7],1.3
same,Licorice Aftertaste,panel of volunteers [4]; [7],2.3
same,Lingering Sweetness,panel of volunteers [4]; [7],2.5
same,Overall Off-Taste,panel of volunteers [4]; [7],3.4
same,Bitterness,panel of volunteers [4]; [7],1.6
same,Delayed Sweetness,panel of volunteers [4]; [7],2.5
same,Global Flavor Intensity,panel of volunteers [4]; [7],3.0
same,Sweetness,panel of volunteers [4]; [7],3.4
same,Thickness/Body,panel of volunteers [4]; [7],1.3
same,Licorice Aftertaste,panel of volunteers [4]; [8],2.0
same,Lingering Sweetness,panel of volunteers [4]; [8],3.8
same,Mouth Coating,panel of volunteers [4]; [8],2.1
same,Overall Off-Taste,panel of volunteers [4]; [8],2.9
same,Bitterness,panel of volunteers [4]; [8],1.3
same,Delayed Sweetness,panel of volunteers [4]; [8],3.1
same,Global Flavor Intensity,panel of volunteers [4]; [8],4.1
same,Sweetness,panel of volunteers [4]; [8],5.2
same,Thickness/Body,panel of volunteers [4]; [8],1.6
same,Licorice Aftertaste,panel of volunteers [5]; [9],0.8
same,Lingering Sweetness,panel of volunteers [5]; [9],2.5
same,Mouth Coating,panel of volunteers [5]; [9],2.9
same,Overall Off-Taste,panel of volunteers [5]; [9],1.6
same,Astringence,panel of volunteers [5]; [9],0.5
same,Delayed Sweetness,panel of volunteers [5]; [9],1.9
same,Fattiness,panel of volunteers [5]; [9],3.2
same,Sourness,panel of volunteers [5]; [9],1.0
same,Sweetness,panel of volunteers [5]; [9],5.0
same,Licorice Aftertaste,panel of volunteers [5]; [10],1.1
same,Lingering Sweetness,panel of volunteers [5]; [10],3.5
same,Mouth Coating,panel of volunteers [5]; [10],0.9
same,Overall Off-Taste,panel of volunteers [5]; [10],2.2
same,Astringence,panel of volunteers [5]; [10],0.3
same,Bitterness,panel of volunteers [5]; [10],1.2
same,Delayed Sweetness,panel of volunteers [5]; [10],2.0
same,Fattiness,panel of volunteers [5]; [10],3.5
same,Global Flavor Intensity,panel of volunteers [5]; [10],4.2
same,Sourness,panel of volunteers [5]; [10],0.9
same,Sweetness,panel of volunteers [5]; [10],6.3
same,Bitterness Aftertaste,panel of volunteers [6],1.6
same,Licorice Aftertaste,panel of volunteers [6],2.3
same,Lingering Sweetness,panel of volunteers [6],3.6
same,Overall Off-Taste,panel of volunteers [6],3.7
same,Bitterness,panel of volunteers [6],2.0
same,Delayed Sweetness,panel of volunteers [6],3.4
same,Global Flavor Intensity,panel of volunteers [6],3.9
same,Sweetness,panel of volunteers [6],5.0
C[C@H](CC[C@@H](O[C@@H]1O[C@H](CO[C@H]2O[C@H](CO)[C@@H](O)[C@H](O)[C@H]2O)[C@@H](O)[C@H](O)[C@H]1O[C@@H]1O[C@H](CO)[C@@H](O)[C@H](O)[C@H]1O)C(C)(C)O)[C@H]1CC[C@@]2(C)[C@]3(C)CC=C4[C@@H](CC[C@H](O[C@@H]5O[C@H](CO)[C@@H](O)[C@H](O)[C@H]5O)C4(C)C)[C@]3(C)[C@H](O)C[C@]12C [Siratose],Sweet Linger,panel of flavorists [1],6.375 (a)
same,Bitterness,panel of flavorists [1],1.750 (a)
same,Mouthfeel/Thickness,panel of flavorists [1],5.375 (a)
same,Peak Sweetness,panel of flavorists [1],8.000 (a)
same,Upfront Sweetness,panel of flavorists [1],6.625 (a)
same,Sweet Linger,panel of flavorists [2],6.143 (a)
same,Bitterness,panel of flavorists [2],1.357 (a)
same,Mouthfeel/Thickness,panel of flavorists [2],4.143 (a)
same,Peak Sweetness,panel of flavorists [2],8.429 (a)
same,Upfront Sweetness,panel of flavorists [2],6.571 (a)
same,bitter aftertaste compared with stevia,expert panelists,lower bitter aftertaste
same,licorice aftertaste compared with stevia,expert panelists,lower licorice aftertaste
same,mouthfeel compared with stevia,expert panelists,better mouthfeel
"C=C1C[C@@]23CC[C@H]4[C@@](C)(CCC[C@@]4(C)C(=O)O[C@@H]4O[C@H](CO)[C@@H](O)[C@H](O[C@@H]5O[C@H](CO)[C@@H](O)[C@H](O)[C@H]5O)[C@H]4O[C@@H]4O[C@H](CO)[C@@H](O)[C@H](O)[C@H]4O)[C@@H]2CC[C@]1(O[C@@H]1O[C@H](CO)[C@@H](O)[C@H](O[C@@H]2O[C@H](CO)[C@@H](O)[C@H](O)[C@H]2O)[C@H]1O[C@@H]1O[C@H](CO)[C@@H](O)[C@H](O)[C@H]1O)C3 [Reb M, Rebaudioside M]",Licorice Aftertaste,panel of volunteers [3],2.2
same,Lingering Sweetness,panel of volunteers [3],3.9
same,Mouth Coating,panel of volunteers [3],2.5
same,Overall Off-Taste,panel of volunteers [3],3.3
same,Delayed Sweetness,panel of volunteers [3],3.3
same,Sweetness,panel of volunteers [3],5.8
same,Bitterness Aftertaste,panel of volunteers [4]; [7],1.1
same,Licorice Aftertaste,panel of volunteers [4]; [7],2.0
same,Lingering Sweetness,panel of volunteers [4]; [7],3.7
same,Overall Off-Taste,panel of volunteers [4]; [7],2.9
same,Bitterness,panel of volunteers [4]; [7],1.4
same,Delayed Sweetness,panel of volunteers [4]; [7],2.5
same,Global Flavor Intensity,panel of volunteers [4]; [7],4.0
same,Sweetness,panel of volunteers [4]; [7],4.9
same,Thickness/Body,panel of volunteers [4]; [7],1.5
same,Licorice Aftertaste,panel of volunteers [4]; [8],2.2
same,Lingering Sweetness,panel of volunteers [4]; [8],4.4
same,Mouth Coating,panel of volunteers [4]; [8],2.2
same,Overall Off-Taste,panel of volunteers [4]; [8],3.1
same,Bitterness,panel of volunteers [4]; [8],1.3
same,Delayed Sweetness,panel of volunteers [4]; [8],3.0
same,Global Flavor Intensity,panel of volunteers [4]; [8],4.7
same,Sweetness,panel of volunteers [4]; [8],6.1
same,Thickness/Body,panel of volunteers [4]; [8],1.9
same,Licorice Aftertaste,panel of volunteers [5]; [9],0.8
same,Lingering Sweetness,panel of volunteers [5]; [9],2.6
same,Mouth Coating,panel of volunteers [5]; [9],3.1
same,Overall Off-Taste,panel of volunteers [5]; [9],1.8
same,Astringence,panel of volunteers [5]; [9],0.6
same,Delayed Sweetness,panel of volunteers [5]; [9],1.7
same,Fattiness,panel of volunteers [5]; [9],3.3
same,Sourness,panel of volunteers [5]; [9],0.7
same,Sweetness,panel of volunteers [5]; [9],4.9
same,Licorice Aftertaste,panel of volunteers [5]; [10],1.3
same,Lingering Sweetness,panel of volunteers [5]; [10],3.8
same,Mouth Coating,panel of volunteers [5]; [10],0.7
same,Overall Off-Taste,panel of volunteers [5]; [10],2.1
same,Astringence,panel of volunteers [5]; [10],0.6
same,Bitterness,panel of volunteers [5]; [10],0.8
same,Delayed Sweetness,panel of volunteers [5]; [10],2.2
same,Fattiness,panel of volunteers [5]; [10],3.8
same,Global Flavor Intensity,panel of volunteers [5]; [10],4.6
same,Sourness,panel of volunteers [5]; [10],0.7
same,Sweetness,panel of volunteers [5]; [10],6.6
same,Bitterness Aftertaste,panel of volunteers [6],1.4
same,Licorice Aftertaste,panel of volunteers [6],2.5
same,Lingering Sweetness,panel of volunteers [6],4.3
same,Overall Off-Taste,panel of volunteers [6],3.6
same,Bitterness,panel of volunteers [6],1.9
same,Delayed Sweetness,panel of volunteers [6],3.3
same,Global Flavor Intensity,panel of volunteers [6],4.8
same,Sweetness,panel of volunteers [6],6.0
